Laboratory results reported in patent US20250179057A1, “MEK IMMUNE ONCOLOGY INHIBITORS AND THERAPEUTIC USES THEREOF” (Immuneering Corporation, priority 2022, published 2025).

Legend:
[1] = test system: phospho-ERK in A549 (KRAS G12S) cells; assay: Cell-based pERK (pERK:tERK) in A549 cells; parameters: A549-pERK 10 uM, 2 h: unit not given here; details: for A549-pERK (10 nM, 2 h): phospho- to total protein ratio normalized to DMSO control (Table 9); for activity at 0.01 µM: Homo sapiens, A549, 2 h, read-out: A549-pERK (10 nM, 2 h)
Procedure: Media components, reagents and buffers for Western Blot: All cell culture media components were obtained from ThermoFisher Scientific. […] Laemmli sample loading 4× buffer (ThermoFisher Scientific, Cat No. NP0007). MOPS/SDS electrophoresis running buffer (GenScript, Cat No. M00138).
Subculture conditions: Adherent cells were grown to approximately 90% confluency, culture medium was aspirated and the cell layer was rinsed with PBS. […] Eight mL media was added, cells were spun down at 1000×g for 5 minutes. Cell pellet was re-suspended in 10 mL media and an appropriate volume was inoculated into a new culture flask.
Compound (drug) treatment: Cells were plated in a 6-well plate at a density of 250,000-300,000 cells/well in 3 mL media and incubated 37° C. in a humidified, 5% CO2 incubator. […] These solutions were added to the cells (3 uL/well), mixed by swirling the plate, and incubated at 37° C. in a humidified, 5% CO2 incubator for 2 hours.
Cell lysis and protein estimation: Cells were washed with PBS, and scraped in 50 μL of lysis buffer containing protease and phosphatase inhibitors. Cell lysates were stored at −20° C. Cell lysates were thawed and spun at 12,000 rpm for one minute, 3 ul of the supernatant was added to 500 μL of Coomassie blue reagent following by 500 μL of water. […] Protein standards were used (0-20 mg/mL) to calculate protein concentrations of test samples.
All samples were heated at 95° C. for 5 minutes, cooled to room temperature and spun down. […] After the run, gel was removed and protein transfer was done using iBlot for 7 minutes, as per manufacturer's recommendations. After the transfer, nitrocellulose membrane was incubated on a shaker in 5 mL of blocking buffer at room temperature for 1 hr. The blot was then incubated overnight on a shaker in 5 ml of blocking buffer containing 0.2% Tween-20 and primary antibody, at room temperature. Anti-phospho-STAT3 antibody was used at a dilution of 1:500, the other 3 primary antibodies were used at a dilution of 1:1000.
Next day, the blot was washed 3 times for 10 min each with 10 mL of TBST followed by incubation on a shaker in 5 ml of blocking buffer containing 0.2% Tween-20 and 0.5 ul of the IRDye labeled secondary antibodies, diluted 1:10000, at room temperature for 1 hr. The blot was then washed 3 times for 10 min each with 10 mL of TBST and dried between sheets of paper towels. Imaging was done using LICOR's Odyssey imaging system, quantitation was done using their software, Image Studio version 3.1.
(§1) Materials and Methods: A549 or A375 cells were seeded in 6-well plates at an appropriate seeding density on day 0. On day 2 or 3, after checking the health and confluency of cells, the media was aspirated and replaced with 1 mL media containing a predetermined concentration of compound and incubated for 2 hours. After 2 hours, the media was aspirated, and the cells washed 2 times with cold PBS. Cells were lysed on ice, with 50 uL 1×CST lysis buffer +1 mM PMSF for 5 minutes. After 5 minutes, cells were removed using a scraper and transferred to cold 1.5 mL tubes, and centrifuged for 10 min, 4° C., 14,000×g. Supernatant was gently removed and snap frozen in liquid nitrogen. Protein concentration of the lysate was determined using Bradford Reagent (analyzed using SpectraMax M2E) and diluted to 1 mg/mL or pERK or 1.5 mg/mL for pMEK analysis. […] All dilutions were in Milk-free antibody diluent.
They were grown in T75 flasks in DMEM containing 10% FBS and Pen-Strep. at 37° C. in a humidified, 5% CO2 incubator. The adherent cells were grown to about 90% confluency, culture medium was aspirated, and the cell layer was rinsed with PBS. […] Eight mL media was added, cells were spun down at 1000 g for 5 minutes. Cell pellet was re-suspended in 10 mL media and an appropriate volume was inoculated into a new culture flask. Cells were plated in a 6-well plate at a density of 250,000-300,000 cells/well in 3 mL media and incubated 37° C. in a humidified, 5% CO2 incubator.

[2] = test system: phospho-MEK in A549 cells; assay: Cell-based pMEK (pMEK:tMEK, CRAF bypass) in A549 cells; details: 2 h, pMEK to total MEK normalized to DMSO control
Procedure: as §1
(§2) A549 or […] cells were treated in duplicate for two hours with compounds at varying concentrations. After two hours, the cells were lysed, snap frozen, and stored at −80° C. After storage, the lysate was quantified with the Bradford assay. Before the lysates were prepared to run on the Jess, the lysates were diluted to 1 mg/mL for pERK analysis and 1.5 mg/mL pMEK analysis using quantitative Western blotting. ERK and MEK phosphorylation levels were estimated by taking the ratio of phospho-protein to total protein and normalizing to the DMSO control.
as §2

PAMPA (pH 7.4) = type: in vitro ADME; details: PAMPA; pH = 7.4 (Table 14)

| SMILES | A549-pERK (10 nM, 2 h) ([1]; 2 h) | A549-CRAF BP 100 nM, 2 h [2] | other results |
| --- | --- | --- | --- |
| CNS(=O)(=O)Nc1cccc(Cc2c(CNc3cncs3)c3ccc(OC(=O)N(C)C)cc3oc2=O)c1F [Compound 91] | 74.6 | 84.2 | – |
| CNS(=O)(=O)Nc1cccc(Cc2c(CN(C)c3ccc(Cl)cc3)c3ccc(OC(=O)N(C)C)cc3oc2=O)c1F [Compound 97] | 56.5 | 52.1 (mean, n = 2) | – |
| CCS(=O)(=O)Nc1cccc(Cc2c(C)c3ccc(OC(=O)N(C)C)cc3oc2=O)c1F [Compound 107] | 18.0 | 39.9 | – |
| CNS(=O)(=O)Nc1cccc(Cc2c(C)c3cc(C)c(OC(=O)N(C)C)cc3oc2=O)c1F [Compound 108] | 5.78 | 47.9 (mean, n = 2) | – |
| CNS(=O)(=O)Nc1cccc(Cc2c(C)c3cc(Cl)c(OC(=O)N(C)C)cc3oc2=O)c1F [Compound 109] | 4.51 | 41.9 (mean, n = 2) | – |
| CNS(=O)(=O)Nc1nccc(Cc2c(C)c3cc(C)c(OC(=O)N(C)C)cc3oc2=O)c1F [Compound 110] | 5.92 | 56.6 (mean, n = 2) | – |
| CNS(=O)(=O)Nc1nccc(Cc2c(C)c3cc(Cl)c(OC(=O)N(C)C)cc3oc2=O)c1F [Compound 111] | 4.63 | 48.6 (mean, n = 2) | – |
| Cc1c(Cc2ccnc(NS(=O)(=O)C3CC3)c2F)c(=O)oc2cc(OC(=O)N(C)C)ccc12 [Compound 112] | 46.3 | 52.9 (mean, n = 2) | – |
| Cc1c(Cc2cccc(NS(=O)(=O)C3CC3)c2F)c(=O)oc2cc(OC(=O)N(C)C)ccc12 [Compound 113] | 24.7 | 48.0 (mean, n = 2) | – |
| Cc1c(Cc2ccnc(NS(=O)(=O)C(C)C)c2F)c(=O)oc2cc(OC(=O)N(C)C)ccc12 [Compound 114] | 36.6 | 59.9 (mean, n = 3) | – |
| Cc1c(Cc2cccc(NS(=O)(=O)C(C)C)c2F)c(=O)oc2cc(OC(=O)N(C)C)ccc12 [Compound 115] | 13.5 | 39.2 (mean, n = 2) | – |
| Cc1c(Cc2cccc(NS(=O)(=O)C3CCC3)c2F)c(=O)oc2cc(OC(=O)N(C)C)ccc12 [Compound 118] | 21.1 | 39.1 (mean, n = 2) | – |
| CCS(=O)(=O)Nc1nccc(Cc2c(C)c3ccc(OC(=O)N(C)C)cc3oc2=O)c1F [Compound 119] | 64.8 | 66.1 | – |
| Cc1c(Cc2ccnc(NS(=O)(=O)C3CCC3)c2F)c(=O)oc2cc(OC(=O)N(C)C)ccc12 [Compound 125] | 54.4 | 41.7 | – |
| CNS(=O)(=O)Nc1cccc(Cc2c(CN(C)C)c3ccc(OC(=O)N4CCC4)cc3oc2=O)c1F [Compound 128] | 66.3 | 37.7 | – |
| CCS(=O)(=O)Nc1cccc(Cc2c(CN(C)C)c3cc(Cl)c(OC(=O)N(C)C)cc3oc2=O)c1F [Compound 132] | 62.6 | 57.8 | – |

| SMILES | A549-pERK (10 nM, 2 h) ([1]; 2 h) | A549-CRAF BP 100 nM, 2 h [2] | other results |
| --- | --- | --- | --- |
| CNS(=O)(=O)Nc1nccc(Cc2c(CN(C)C)c3cc(F)c(OC(=O)N(C)C)cc3oc2=O)c1F [Compound 140] | 65.0 | 70.3 | – |
| CCS(=O)(=O)Nc1cccc(Cc2c(CN3CCNCC3)c3cc(Cl)c(OC(=O)N(C)C)cc3oc2=O)c1F [Compound 147] | 21.7 | 46.4 | pERK:tERK (10 nM 2 h A549) ([1]; Phospho-ERK Screen in A549 (KRAS G12S), head 10 nM 2 h, title 10 μM for 2 hours): 28 (n = 2) |
| CCS(=O)(=O)Nc1nccc(Cc2c(CN(C)C)c3ccc(OC(=O)N(C)C)cc3oc2=O)c1F [Compound 148] | 49.6 | 56.5 | – |
| CN(C)C(=O)Oc1ccc2c(CN3CCNCC3)c(Cc3ccnc(NS(=O)(=O)C4CC4)c3F)c(=O)oc2c1 [Compound 150] | 47.4 | 90.2 | – |
| CNS(=O)(=O)Nc1cccc(Cc2c(CN3CC4(CCC4)C3)c3ccc(OC(=O)N(C)C)cc3oc2=O)c1F [Compound 153] | 50.2 | 54.1 | – |
| C#CCNCCc1c(Cc2cccc(NS(=O)(=O)NC)c2F)c(=O)oc2cc(OC(=O)N(C)C)ccc12 [Compound 183] | 32.4 | 65.9 (mean, n = 2) | A549-pERK 10 uM, 2 h ([1]; 10 uM, 2 h, phospho- to total protein ratio normalized to DMSO control): 0.82 |
| CN(C)Cc1c(Cc2cccc(NS(=O)(=O)CC(F)(F)F)c2F)c(=O)oc2cc(OC(=O)N(C)C)c(F)cc12 [Compound 236] | – | – | activity at 0.01 µM [1]: 94.1%; Papp at 4 h, 50 μM (PAMPA (pH 7.4)): 520 nm/s |
| CCN(C)Cc1c(Cc2cccc(NS(=O)(=O)CC(F)(F)F)c2F)c(=O)oc2cc(OC(=O)N(C)C)c(F)cc12 [Compound 237] | – | – | activity at 0.01 µM [1]: 114%; Papp at 4 h, 50 μM (PAMPA (pH 7.4)): 500 nm/s |
| CN(C)C(=O)Oc1cc2oc(=O)c(Cc3cccc(NS(=O)(=O)CC(F)(F)F)c3F)c(CN3CCNCC3)c2cc1F [Compound 239] | – | – | activity at 0.01 µM [1]: 96.1%; Papp at 4 h, 50 μM (PAMPA (pH 7.4)): 8 nm/s |
| CCS(=O)(=O)Nc1cccc(Cc2c(CN(C)CCF)c3ccc(OC(=O)N(C)C)cc3oc2=O)c1F [Compound 241] | – | – | activity at 0.01 µM [1]: 96.6%; Papp at 4 h, 50 μM (PAMPA (pH 7.4)): 690 nm/s |
| CCS(=O)(=O)Nc1cccc(Cc2c(CN(C)CC(F)F)c3ccc(OC(=O)N(C)C)cc3oc2=O)c1F [Compound 243] | – | – | activity at 0.01 µM [1]: 86.7%; Papp at 4 h, 50 μM (PAMPA (pH 7.4)): 480 nm/s |
| CCS(=O)(=O)Nc1cccc(Cc2c(CN(C)C)c3ccc(OC(=O)N(C)C)cc3oc2=O)c1Cl [Compound 249, 3-(2-chloro-3-(ethylsulfonamido)benzyl)-4-((dimethylamino)methyl)-2-oxo-2H-chromen-7-yl dimethylcarbamate] | – | – | Papp at 4 h, 50 μM (PAMPA (pH 7.4)): 640 nm/s |
| CNS(=O)(=O)Nc1cccc(Cc2c(CN(C)C)c3c(OC)cc(OC(=O)N(C)C)cc3oc2=O)c1F [Compound 252, 4-((dimethylamino)methyl)-3-(2-fluoro-3-((N-methylsulfamoyl)amino)benzyl)-5-methoxy-2-oxo-2H-chromen-7-yl dimethylcarbamate] | – | – | Papp at 4 h, 50 μM (PAMPA (pH 7.4)): 150 nm/s |
| CNS(=O)(=O)Nc1cccc(Cc2c(CN(C)C)c3c(C)cc(OC(=O)N(C)C)cc3oc2=O)c1F [Compound 253, 4-((dimethylamino)methyl)-3-(2-fluoro-3-((N-methylsulfamoyl)amino)benzyl)-5-methyl-2-oxo-2H-chromen-7-yl dimethylcarbamate] | – | – | Papp at 4 h, 50 μM (PAMPA (pH 7.4)): 480 nm/s |
| CCS(=O)(=O)Nc1cccc(Cc2c(CN3CCNCC3)c3ccc(OC(=O)N(C)C)cc3oc2=O)c1Cl [Compound 258, 3-(2-chloro-3-(ethylsulfonamido)benzyl)-2-oxo-4-(piperazin-1-ylmethyl)-2H-chromen-7-yl dimethylcarbamate] | – | – | Papp at 4 h, 50 μM (PAMPA (pH 7.4)): 10 nm/s |
